Experiment [1] relates to λ carrageenin induced edema in rats. The experiment is described as follows: λ carrageenin induced paw edema. Format: in vivo. On the technique in general: Carrageenan injected into the paw causes an acute inflammation.
Experimental: Carrageenin induced paw edema: Rats were injected with 0.1 ml of 1% λ carrageenin (St.-Louis, Mo.) into the subplantar side of the left hind paw. The paw was marked with ink at the level of the lateral malleolus and dipped in perspex cell up to this mark. The paw volume was measured with an Ugo Basile Plethysmometer (No: 61402) (7140 Comerio-varese, Italy) immediately and 3 h after injecting the λ carrageenin suspension. […] Significant reductions in the paw volume compared to vehicle treated control animals were considered as anti-inflammatory response. Percentage inhibition of oedema was calculated as follows: % Inhibition=(1−VT/VC)×100 VT=Paw volume in drug treated rats, VC=Paw volume in control group of rats.
In experiment [2] the test system is impairment of memory acquisition in step-down test in rats (scopolamine). The experiment is described as follows: Passive avoidance task (step-down test), scopolamine-induced impairment of memory acquisition. Format: in vivo. Here is the method: Passive avoidance task (step-down test): A step-down passive avoidance was examined using apparatus consisted of a box (25×25×40 cm), a floor with stainless-steel grid 2 mm in diameter at 8-mm intervals, and a rubber platform (4 cm diameter, 4 cm height) set on the grid in one corner. Electric stimulation was given through the grid connected with a scrambled shock generator. […] For this trial, each rat was placed gently on the platform and allowed to habituate freely for 3 min, and then electric shock (0.4 mA) were delivered to the grid. If the rat stepped down from the platform, the electric shock was delivered to the rat on the grid floor. The cut off time was 2 min. A retention trail was performed 24 hr after the acquisition trail. Each rat was again placed on the platform. Time (step-down latency) that elapsed until rats stepped down from the electric grid of the platform to shock free zone was recorded. […] An error was counted when ever the rat stepped down from platform. The number of error made in 2 min was recorded.

The inhibition is the drop in the measured response relative to a control, in per cent.

Each structure is given as a SMILES string. Marks after values point to notes of the source that are not given here.

In the case of `COc1ccc2c(c1)c(CC(=O)O)c(C)n2C(=O)c1ccc(Cl)cc1` [Indomethacin], the “Paw volume (ml) at 3 h λ carrageenin” value in experiment [1] (100 mg/kg orally 1 h before carrageenin, six rats, mean ± SEM) is reported as 0.18 ± 0.02^c ml. The compound further had an inhibition at 100 mg/kg in experiment [1] (Rattus norvegicus, inhibition of paw oedema at 3 h vs control, 100 mg/kg, (1−VT/VC)×100) of 79.3%.

With `CN1[C@@H]2C[C@@H](OC(=O)[C@H](CO)c3ccccc3)C[C@H]1[C@@H]1O[C@@H]12` [Scopolamine], the “number of mistakes and latency period (in words)” value in experiment [2] (scopolamine treated group) is recorded as “significant increase in the number of mistakes as well as increase the latency period”. Besides, in experiment [2] (step-down test, rats n=10, scopolamine 0.4 mg/kg i.p., formulations 100 mg/kg, tacrine dose not given, mean ± S.E.M.), the “Latency” value is 8.8 ± 0.03 s.

For the origin of these results see patent US7429397B2, “Herbal formulation as memory enhancer in Alzheimer condition” (Council of Scientific and Industrial Research, priority 2004, dated 2008).
